For data set [1], the system named is donor hepatocytes positive for the PNPLA3 rs738409:G variant. Kind of data set: Cell viability / survival (Alamar Blue) of primary human hepatocytes. Type of data set: cell-based. On the procedure: To evaluate the protective effects of deferoxamine, primary human hepatocytes were treated with 100 μM deferoxamine (DFO, Sigma-Aldrich, Saint-Louis, MO) for 24 hours in suspension. To evaluate the protective effects of GSH, primary human hepatocytes on collagen-coated plates were treated with 10 μM reduced L-glutathione (GSH, G4251, Sigma-Aldrich, Saint-Louis, MO) for 48 hours. Cell Viability Measurements: Cell viability was assessed in 96-well format using Alamar Blue (Invitrogen, Carlsbad, CA) absorbance (570 nm/600 nm) measured on a synergy HTX microplate reader (Biotek, Winooski, VT) 24 hours after ferroptosis induction. Post thaw viability of primary human hepatocytes was evaluated by Trypan blue dye exclusion counting using a Countess 3 automated cell counter (Invitrogen, Carlsbad, CA).
In general terms: The colour change of resazurin is a common sign of viable cells or microbes.

Data set [2] has the same test system. Kind of data set: Mitochondrial shape by transmission electron microscopy. In kind it is cell-based, human. The settings on record: in the presence of FINO2. How it is done:
To evaluate the protective effects of deferoxamine, primary human hepatocytes were treated with 100 μM deferoxamine (DFO, Sigma-Aldrich, Saint-Louis, MO) for 24 hours in suspension. To evaluate the protective effects of GSH, primary human hepatocytes on collagen-coated plates were treated with 10 μM reduced L-glutathione (GSH, G4251, Sigma-Aldrich, Saint-Louis, MO) for 48 hours. Transmission electron microscopy: Human hepatocytes in suspension were briefly centrifugated and washed with PBS solution. Samples were then fixed with 2.5% glutaraldehyde over night at 4° C. Fixed samples were processed by the Center for Biologic Imaging at the University of Pittsburgh, and treated with 1% osmium tetroxide and 1% potassium ferricyanide for 1 hour at room temperature. Samples were washed with PBS and dehydrated in a graded series of ethanol solution (30%, 50%, 70%, and 90% ethanol; 10 minutes each) and three 15-minute incubations in fresh 100% ethanol. Infiltration/embedding was done with three 1-hour incubations of epon. The last change of epon was removed and beam capsules filled with resin were inverted over relevant areas of the monolayers. […] Mitochondrial shape was evaluated as published previously using ImageJ (Merrill et al. in Techniques to Investigate Mitochondrial Function in Neurons, 123:31-48. Neuromethods. Springer New York, 2017).

The test system is the same in data set [3]. Kind of data set: Lipid peroxidation (C11-BODIPY / MDA) in primary human hepatocytes. Type of data set: cell-based. On the procedure: To evaluate the protective effects of deferoxamine, primary human hepatocytes were treated with 100 μM deferoxamine (DFO, Sigma-Aldrich, Saint-Louis, MO) for 24 hours in suspension. To evaluate the protective effects of GSH, primary human hepatocytes on collagen-coated plates were treated with 10 μM reduced L-glutathione (GSH, G4251, Sigma-Aldrich, Saint-Louis, MO) for 48 hours. Analysis of Lipid Peroxidation: A oxidation-sensitive probe C11-BODIPY (581/591) (Invitrogen, Carlsbad, CA) was used to evaluate lipid peroxidation under a fluorescence microscope. Untreated hepatocytes were prepared using a cytocentrifuge, incubated for 30 min with 10 μM C11-BODIPY, and washed with PBS. Cultured cells were incubated with 10 μM C11-BODIPY dissolved in culture media for 30 min at 37° C. and washed with PBS. The fluorescent signal was evaluated 3 hours after induction of ferroptosis. Malondialdehyde (MDA) is a natural biproduct of lipid peroxidation and MDA quantification is used as marker for lipid peroxidation. The MDA content in primary human hepatocytes was quantified using a commercially available kit from Sigma-Aldrich (Sigma-Aldrich, Saint-Louis, MO). Cryopreserved primary human hepatocytes were pelleted and analyzed directly or were cultured for 3 hours in suspension before the analysis. […] The MDA-TBA adduct was quantified using fluorometric detection (ex/em=430 nm/590 nm).

Entries after “also recorded” stand apart in the source; their conditions may differ.

As for `CC1(CCO)CC2(CCC(C(C)(C)C)CC2)OO1` (stereo not drawn) [FINO2, (5α,8α)-8-(1,1-dimethylethyl)-3-methyl-1,2-dioxaspiro[4.5]decane-3-ethanol, reference compound], in data set [1] (donor hepatocytes cultured in the presence of FINO2 (50 μM), 24 hours after ferroptosis induction), the donor hepatocyte survival entry is “significant reduction in donor hepatocyte survival”. For the same compound, the mitochondrial shape entry in data set [2] is on record as “changed from a rod shape to a spherical shape”. The lipid peroxidation result in data set [3] (donor hepatocytes cultured in the presence of FINO2 (50 μM)) is on record as “increased lipid peroxidation”.

As to `N[C@@H](CCC(=O)N[C@@H](CS)C(=O)NCC(=O)O)C(=O)O` [GSH, reduced L-glutathione], the survival entry in data set [1] (10 μM reduced L-glutathione, 48 hours, collagen-coated plates, p=0.002) is listed as “improves cell survival; also recorded: increased survival”. Further, in data set [3] (10 μM reduced L-glutathione, 48 hours, collagen-coated plates), the lipid peroxidation result is given as “reduces lipid peroxidation; also recorded: decreased lipid peroxidation”.
